Experimental data taken from ChEMBL document CHEMBL4382222, “Structural development of non-secosteroidal vitamin D receptor (VDR) ligands without any asymmetric carbon” (Bioorg Med Chem, 2018).

Key:
[1] = biological target: T1, Vitamin D3 receptor (Homo sapiens) (UniProt P11473); assay: Agonist activity at human VDR expressed in HOS cells co-expressing human RXR at 0.00001 to 10 uM by Dual-Glo luciferase reporter gene assay relative to 1alpha,25(OH)2D3; assay type: cell-based
T1 sequence (whole entry): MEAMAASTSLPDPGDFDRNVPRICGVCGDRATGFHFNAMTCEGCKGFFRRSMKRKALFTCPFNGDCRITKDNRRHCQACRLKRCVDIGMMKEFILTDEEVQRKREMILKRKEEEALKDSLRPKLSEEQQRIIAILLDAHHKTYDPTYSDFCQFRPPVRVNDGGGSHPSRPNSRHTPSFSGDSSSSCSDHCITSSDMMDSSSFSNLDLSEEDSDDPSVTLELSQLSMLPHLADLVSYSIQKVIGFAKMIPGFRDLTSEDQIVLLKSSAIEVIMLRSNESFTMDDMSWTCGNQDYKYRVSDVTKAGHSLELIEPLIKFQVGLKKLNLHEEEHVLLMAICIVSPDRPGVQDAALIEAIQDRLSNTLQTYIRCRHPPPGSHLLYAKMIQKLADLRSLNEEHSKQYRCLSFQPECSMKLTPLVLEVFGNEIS

Vitamin D3 receptor = biological target: T2, Vitamin D3 receptor (Homo sapiens, UniProt P11473); assay: Agonist activity at human VDR expressed in HOS cells co-expressing human RXR by Dual-Glo luciferase reporter gene assay; assay type: cell-based
T2 sequence (P11473 whole entry): T1 sequence (whole entry)

CCC(O)(CC)COc1ccc(C(CC)(CC)c2ccc(OC[C@@H](O)CO)c(C)c2)cc1C
Emax [1]: 90%
EC50 (Vitamin D3 receptor): 18 nM

CCC(CC)(c1ccc(OCCC(C)(C)O)c(C)c1)c1ccc(OCC(CO)CO)c(C)c1
Emax [1]: 91%
EC50 (Vitamin D3 receptor): 76.9 nM

CCC(O)(CC)COc1ccc(C(CC)(CC)c2ccc(OC(CO)CO)c(C)c2)cc1C
Emax [1]: 100%
EC50 (Vitamin D3 receptor): 17.2 nM

CCC(CC)(c1ccc(OCCC(C)(C)O)c(C)c1)c1ccc(OC[C@@H](O)CO)c(C)c1
Emax [1]: 100%
EC50 (Vitamin D3 receptor): 41.7 nM

CCC(CC)(c1ccc(OC[C@@H](O)CO)c(C)c1)c1ccc(OCC(C)(C)O)c(C)c1
Emax [1]: 67%
EC50 (Vitamin D3 receptor): 163 nM

CCC(O)(CC)COc1ccc(C(CC)(CC)c2ccc(OCC(CO)CO)c(C)c2)cc1C
Emax [1]: 100%
EC50 (Vitamin D3 receptor): 9.26 nM

CCC(CC)(c1ccc(OCC(CO)CO)c(C)c1)c1ccc(OCC(C)(C)O)c(C)c1
Emax [1]: 91%
EC50 (Vitamin D3 receptor): 76.5 nM
